Source: patent US12098352B2, “Stem cell-based lung-on-chip models” (EMULATE, INC., priority 2018, dated 2024)

How the values were obtained:
platelets = assay: Blood perfusion of LPS pretreated Alveolar-chip vascular channel; format: cell-based, human; conditions: LPS pretreated (inflamed) chip
Procedure: For further validation on the functionality of the endothelial compartment, the vascular compartment comprising an endothelial cell lining, was exposed to blood under flow. In one embodiment, an LPS pretreated microfluidic Alveolar-chip was perfused with blood, i.e. blood was flowed through the spiral channel. In one embodiment, a sample of human blood, e.g. 5 ml of whole blood isolated the same day from a healthy person (e.g. in citrate or heparin anticoagulation compounds) was perfused through the bottom spiraled channel with Ca2+ and Mg2+ to counteract the anticoagulation compounds, at 30 ml/hour. […] Left, schematic diagrams of the upper channels blue and ports blue dots, and spiral lower vascular endothelial channel red and ports red dots. […] Larger pink areas represent aggregation of platelets and adhered platelets are observed at the lower sharp bend.

[1] = system: cellular monolayer barrier; assay: Barrier function in static transwell; format: cell-based; conditions: doses up to 100 ng/ml LPS, 10 mM H2O2
IL-6, IL-8 and MCP-1 = assay: Cytokine secretion in chip medium effluent (ELISA); format: cell-based, human
From the text: We studied interaction between different chip compartments by perturbating the system with biological and chemical stressors such as LPS, and H2O2 which are known to induce a reversible disruption of the cellular monolayer after acute administration both in vivo and in vitro. […] To assess changes in the barrier function following the exposure to these insults, we added a fluorescent dye (e.g. […]—Dextran-FITC) to the endothelial compartment, which is under control condition confirmed that the endothelium and epithelium form a barrier to the dies. The presence of a strong barrier is also indirectly confirmed by the presence of continuous pattern of E-cad and VE-cad in the monolayer of Alveolar epithelial and endothelial cell, respectively. […] We also decoupled the effect of single biological component to the inflammatory response by selectively removing them from the system in an integrated matrix. […] In fact, the recorded value of IL-6 and IL-8 is not the algebraic sum of the concentration of the factors released by the single cellular components. […]
The amount of Surfactant B and C was collected from chip epithelial cell surface by PBS washing and measured by Human SFTPB/Surfactant Protein B ELISA Kit (Sandwich ELISA)—LS-F4439 and Human SFTPC/Surfactant Protein C ELISA Kit (Sandwich ELISA)—LS-F12438 (LifeSpanBioScience) following the manufacturer's protocol. The color reaction was measured at 450 nm with a photometer (specification). […] Similarly, the presence of IL-6, IL-8 and MPC in medium samples was detected by Human TLR-induced Cytokines II: Microbial-induced Multi-Analyte ELISArray Kit (MEH-008A) (Qiogen) following the manufacturer's protocol. The color reaction was measured at 450 nm with a photometer (specification). […]

[2] = system: Alveolus-Chip epithelium/endothelium barrier; assay: Barrier function assay (fluorescent dextran / Lucifer Yellow leakage) in Open-Top Alveolus-Chip; format: cell-based, human
From the text: We studied interaction between different chip compartments by perturbating the system with biological and chemical stressors such as LPS, and H2O2 which are known to induce a reversible disruption of the cellular monolayer after acute administration both in vivo and in vitro. […] The presence of a strong barrier is indirectly confirmed by the presence of continuous pattern of E-cad and VE-cad in the monolayer of Alveolar epithelial and endothelial cell, respectively.
Given the limited availability of in vitro models that can closely mimic human alveolar epithelium function and/or its disease states, we explored whether a microfluidic Alveolus-Chip lined with the primary alveolar epithelial cells on an artificial lung stroma with embedded primary lung fibroblasts and pulmonary microvascular endothelial cells would model a lung injury state. To test this, we exposed the Alveolus-Chips to an acute damage generated by exposure to H2O2 under continuous infusion through the epithelium top channel, similarly to as it is […] administered in mice.
Air-Liquid interface was replaced by phenol red free MEM (GIBCO: 51200-038) and medium in the bottom fluidical spiraled channel substituted by one containing 1 mg/ml Lucifer Yellow CH, Lithium Salt (ThermoFisher: L453) or 0.1 mg/ml Dextran, Fluorescein, 3000 MW, Anionic, Lysine Fixable (ThermoFisher: D3306). Leakage of the fluorescent probe from the lumen of the spiraled channel to the epithelial compartment was collected from the outlet reservoirs after indicated hours of perfusion. The fluorescence intensity was measured with a 96-well fluorimeter at excitation/emission indicated by the manufacturer.

Lipopolysaccharide [LPS]
platelet response on blood perfusion (platelets): platelet adhesion and aggregation
loss of barrier function [1]: dose dependent loss of barrier function
release of IL-6, IL-8 and MCP-1 in medium effluent (IL-6, IL-8 and MCP-1; 24 hours of exposure): increases of lung specific cytokines
IL-6, IL-8 and MCP-1 secretion, fold increase in relation to untreated controls (IL-6, IL-8 and MCP-1; LPS stimulation, co-presence of epithelial cells): 40-90 fold
effect of stressor on barrier function ([2]; LPS 10 ng/ml and/or H2O2 10 mM): causes barrier breakdown and disruption of intracellular junction
reversibility of barrier breakdown after removal of stressor ([2]; additional 2 days in fresh medium): barrier breakdown in our chip was reversable
